Test results published in patent publication US20150374784A1, “COMPOSITIONS AND METHODS FOR REDUCING GERM CELL DEATH” (Los Angeles Biomedical Research Institute at Harbor-UCLA …, priority 2014, published 2015).
“And” between values parts separate entries of the source, which are not always exact repeats. Identical values can stand only once.

Assays:
male germ cells [1] = assay type: in vivo, mouse; conditions: for germ cell apoptosis in testicular cross sections (TUNEL) compared to control: 24 hours after IP injection
Description: Young adult mice (12-13 weeks) were randomly divided into 4 groups with 4 or 5 mice per group and received an IP injection: control (Con) (saline), HN (40 mg/Kg BW), CP (200 mg/Kg BW), and the combination of CP+HN. These experiments were repeated four times. In the CP+HN group, mice received an injection of HN followed by an injection of CP about 15 minutes later. Twenty-four hours after injections animals were sacrificed using 5% pentobarbital (200 mg/kg BW) IP injection. Blood was collected and one testis was removed, weighed and frozen in liquid nitrogen. The mouse was next perfused with saline and then subsequently perfuse-fixed with Bouin's solution as previously described and apoptosis was assessed by TUNEL assay (Lue, et al., 2009).
For detection of apoptosis in testicular sections, the paraffin embedded testis tissue was cut into 5 micron sections and stained with the TdT-mediated dUTP nick-end labeling assay (TUNEL Apoptosis Detection Kit, Millipore, Billerica, Mass.) to detect apoptosis of germ cells in the testis (Lue, et al., 2009). Testicular sections assayed by TUNEL were examined under a light microscope and the apoptotic germ cells were blindly and manually counted. The seminiferous tubules in the testis section under the microscope were grouped as stages IX-IV (early-late stages of spermatogenesis) and V-VIII (middle stages of spermatogenesis). Germ cell apoptosis was quantified as the number of seminiferous tubules containing apoptotic spermatogonia, spermatoctyes, round spermatids and spermatozoa per 100 seminiferous tubules (Drumond, et al., 2011).
Statistical analyses of the majority of the data was performed using the Sigma Plot 12 program (Jandel, San Rafael, Calif.). The data were analyzed by using t-tests and one-way ANOVA followed by Student-Newman-Keuls Method. P-values of less than 0.05 (P<0.05) were considered significant. In in vivo experiments when the testicular sections were assessed for apoptosis, a mixed model used the percentage of tubules with apoptosis as the dependent variable. Two different stages (Early or Late Vs Middle) and four treatment groups (Control, HN CP, CP+HN) as well as the interaction term were included in the model as independent variables. Persons who did the experiment were considered as a random effect to accommodate a potential heterogeneous variance in the model. Least Square Means and their differences were computed and tested using the Tukey's adjustment for multiple pair-wise comparisons. A residual analysis was done to check for the model assumptions. All the data analysis was carried out using SAS 9.3 (Cary, N.C. USA).

male germ cells [2] = assay type: in vivo, mouse
Description: (§1) For the HN analog experiments, male mice were divided into seven groups (n=4-5 per group) and received one of the following treatments and sacrificed after 24 hours: 1) vehicle (control); 2) a single intra-peritoneal (IP) injection of HN peptide [HN, 40 mg/Kg body weight (BW)]; 3) a single IP injection of CP (CP, 200 mg/Kg BW); 4) IP injection of CP and HN (CP+HN); 5) a single IP injection of each HN analog (HNG 5 mg/Kg BW, HNG-F6A 5 mg/Kg BW, HN-S7A 40 mg/Kg BW, HN-C8P 40 mg/Kg BW, or HN-L12A 40 mg/Kg BW); 6) IP injection of CP and each HN analog (CP+HNG, HNG-F6A, HN-S7A, HN-C8P, or HN-L12A); and 7) IP injection of CP+HN+HN analog (HN-S7A, HN-C8P, or HN-L12A; to assess whether the analogs has enhancing or inhibitory effect on HN).
(§2) To facilitate testicular fixation by using a whole-body perfusion technique, all animals were injected with heparin (130 IU/100 g BW, IP) 15 min before a lethal injection of sodium pentobarbital (200 mg/kg BW, IP) (Lue Y H, et al., 1999). One testis was removed and weighed after perfusion with saline. Portions of testicular parenchyma were snap frozen in liquid nitrogen, and stored at −80 C for Western blotting. The other testis was fixed by vascular perfusion with Bouin's solution, and processed with routine paraffin embedding for in situ detection of apoptosis.
Detection of apoptotic cells was performed in Bouin's′-fixed, paraffin-embedded testicular sections by the terminal deoxynucleotidyl transferase (TdT)-mediated deoxy-UTP nick end labeling (TUNEL) technique (Sinha Hikim A P, et al., 1997) using an ApopTag-peroxidase kit (Chemicon International, Inc., Temecula, Calif.). Enumeration of the Sertoli cell nuclei with distinct nucleoli and apoptotic germ cell population was quantified at stages I-IV (early stages), stages VII-VIII (middle stages) and stages XI-XII (late stages) of the seminiferous epithelial cycle using an Olympus BH-2 microscope (New Hyde Park, N.Y.). Stages were identified according to the criteria proposed by Russell et al for paraffin sections (Russell L, 1977). The rate of germ cell apoptosis (apoptotic index, AI) was expressed as the number of apoptotic germ cells per Sertoli cells (Sinha Hikim A P, et al., 1997).

STAT3 = STAT3 phosphorylation in testis by western blot; assay type: in vivo, mouse; conditions: testis homogenates; for STAT3 phosphorylation (phosphorylated STAT3/STAT3) compared with control: treatment alone
Description: as §1, §2
Western blotting was performed as described previously (Jia Y, et al., 2009). In brief, proteins were denatured and separated by sodium dodecyl sulfate-polyacrylamide gel electrophoresis (SDS-PAGE) system (Invitrogen, Carlsbad, Calif.). After transferring, the Immuno-blot PVDF Membrane (Bio-Rad, Hercules, Calif.) was blocked for 1 h and then probed using anti-STAT3 or anti-pSer727 STAT3 (Cell signaling Technology, Inc., Beverly, Mass.) overnight at 4 C with constant shaking. After washing, membrane was then incubated with an anti-mouse (for STAT3 antibody, Santa Cruz Biotechnology, Santa Cruz, Calif.) or anti-rabbit (for pSer727 STAT3 antibody, Amersham Biosciences, Piscataway, N.J.) IgG-HRP secondary antibody. All antibodies were diluted in blocking buffer. For immunodetection, membrane was incubated with enhanced chemiluminescence solutions per the manufacturer's specifications (Amersham Biosciences, Piscataway, N.J.), and exposed to Hyperfilm ECL (Denville Scientific Inc., Metuchen, N.J.).

Leydig cells = experiment: Leydig cell depletion and testosterone levels in rats; assay type: in vivo, rat; conditions: for intratesticular testosterone levels / serum testosterone levels: rats, EDS 80 mg/kg, CP 70 mg/kg BW, HN 40 mg/kg BW, with or without EDS pre-treatment
male germ cells [3] = tested on: male germ cells
[4] = EDS 80 mg/kg IP 3 days before, CP 70 mg/kg BW
[5] = rats not pre-treated with EDS, CP 70 mg/kg BW IP, 12 hours

MAPRGFSCLLLLTSEIDLPVKRRA [HN]
germ cell apoptosis in testicular cross sections (TUNEL) compared to control (male germ cells [1]; HN 40 mg/Kg, CP 200 mg/Kg): had no significant effect on germ cell apoptosis | CP-induced germ cell apoptosis (male germ cells [1]; HN 40 mg/Kg IP about 15 minutes before CP 200 mg/Kg IP, 24 hours): attenuated the CP-induced germ cell apoptosis | spontaneous germ cell apoptosis, peptide alone (male germ cells [2]; single IP, 24 hours, no CP): did not change the spontaneous germ cell apoptosis | inhibition of (protection against) CP-induced germ cell apoptosis, early+late stages (male germ cells [2]; stages I-IV and XI-XII, HN, HN-C8P 40 mg/kg BW, HNG, HNG-F6A 5 mg/kg BW): ~57% and ~60% | effect on CP-induced germ cell apoptosis, middle stages (male germ cells [2]; stages VII-VIII, 40 mg/kg BW): not in middle stages | STAT3 phosphorylation (phosphorylated STAT3/STAT3) compared with control (STAT3): did not change STAT3 phosphorylation | CP suppressed STAT3 (Ser727) phosphorylation (STAT3; with CP 200 mg/Kg): restored CP-induced Ser 727-phosphorylation of STAT3 | EDS-induced Leydig cell loss (Leydig cells; HN administered 3 days after EDS pre-treatment): did not reverse the EDS-induced Leydig cell loss | intratesticular testosterone levels (Leydig cells): had no significant effects | serum testosterone levels (Leydig cells): had no significant effects | germ cell apoptosis at early and late stages in EDS pre-treated rats, addition of HN (male germ cells [3]; HN 40 mg/kg BW): did not significantly reduced germ cell apoptosis | CP effects at early and late stages in EDS pre-treated animals, addition of HN (male germ cells [3]; HN 40 mg/kg BW + CP + EDS): did not change the CP effects in EDS pre-treated animals | EDS-induced apoptosis of germ cells, middle stages (male germ cells [3]; HN 40 mg/kg BW IP 3 days after EDS): significantly reduced the EDS-induced apoptosis of germ cells | increase in apoptosis in CP+EDS group, middle stages (male germ cells [3]; concomitant HN 40 mg/kg BW): reduced by concomitant HN treatment | apoptosis in CP treated testis, middle (VII-VIII) stages (male germ cells [3]; rats not pre-treated with EDS, HN 40 mg/kg BW + CP): had no effect on CP treated testis | CP-induced apoptosis at early and late stages (male germ cells [3]; rats not pre-treated with EDS, HN 40 mg/kg BW IP + CP 70 mg/kg BW): significantly reduced CP-induced apoptosis

O=P1(N(CCCl)CCCl)NCCCO1 (stereo not shown) [CP, cyclophosphamide monohydrate]
germ cell apoptosis in testicular cross sections (TUNEL) compared to control (male germ cells [1]; HN 40 mg/Kg, CP 200 mg/Kg): significantly increased germ cell apoptosis | germ cell apoptosis, percentage of tubules with apoptotic cells, early-late stages (male germ cells [1]; early-late stages of spermatogenesis, 24 hours, CP 200 mg/Kg, HN 40 mg/Kg): significantly increased germ cell apoptosis | germ cell apoptosis, percentage of tubules with apoptotic cells, middle stages (male germ cells [1]; middle stages (V-VIII), 24 hours, CP 200 mg/Kg, HN 40 mg/Kg): significant increase in apoptosis | Apoptotic Index (AI), apoptotic germ cells per Sertoli cell, middle stages (male germ cells [2]; stages VII-VIII, 24 hours after single IP, CP 200 mg/Kg, HN, HN-S7A 40 mg/Kg, HNG, HNG-F6A 5 mg/Kg, monohydrate): 0.25±0.03 and 0.33±0.03 | STAT3 phosphorylation (phosphorylated STAT3/STAT3) compared with control (STAT3): suppressed Ser727-phosphorylated STAT3 in testes | intratesticular testosterone levels (Leydig cells): had no significant effects | serum testosterone levels (Leydig cells): had no significant effects | CP induced germ cell apoptosis with versus without EDS pre-treatment, early and late stages (male germ cells [3]; CP 70 mg/kg BW): significantly lower in EDS pre-treated rats | germ cell apoptosis at early (I-VI) and late (IX-XIV) stages, EDS pre-treated rats, compared to control (male germ cells [3]; [4]): did not significantly increased germ cell apoptosis | germ cell apoptosis in middle (VII-VIII) stages, EDS pre-treated rats (male germ cells [3]; [4]): did not additively increased germ cell apoptosis caused by EDS treatment | germ cell apoptosis at early (I-VI) and late (IX-XIV) stages compared to control (male germ cells [3]; [5]): significantly increased germ cell apoptosis | germ cell apoptosis in the middle (VII-VIII) stages (male germ cells [3]; [5]): did not increase apoptosis in the middle (VII-VIII) stages
